Test results as given in US20210301315A1, “METHODS FOR TREATING POLYMICROBIAL INFECTIONS” (priority 2017, published 2021).

Key:
[1] = test system: bacterial organisms present in patient urine sample; assay: Antibiotic Resistance (ABR) assay utilizing agar-containing medium; assay type: cell-based; details: for overall sensitivity of the bacteria in the sample to the antibiotic (in words): Example 2 sample
Experimental: Urine samples suitable for processing with this assay are collected, transported, and stored using BD Vacutainer (gray top) tubes or other suitable leak-proof sterile container. Urine samples may be held at room temperature for 48 hours before test results are compromised.
Antibiotic stocks are stored at 2-8° C. and protected from direct sunlight. Prepared antibiotic stock solutions were aliquoted into a 96-deep well plate (Thermo Fisher Scientific) to form an Antibiotic Source Plate, as shown in FIG. 11 and identified by antibiotic name and concentration (μg/mL; 10× final concentration). […] One well was designated AB-blend which contained a combination of antibiotics to ensure there was no bacterial growth.
One hundred microliters of Mueller-Hinton agar medium was aliquoted into each appropriate well position of a 96-well microplate (VIS 96/F-PS, Eppendorf). The medium was allowed to solidify at room temperature for at least 10 min.
The antibiotics (10 μL) at various concentrations were then aliquoted into desired wells from the Antibiotic Source Plate. After the antibiotics were introduced to the agar medium, the ABR microplates were allowed to sit for at least 1 hr before use. If long-term storage is required, ABR microplates containing antibiotic-infuse agar are stored at 2-8° C. in the dark.
At the time of testing, urine samples were diluted 1:20 in sterile saline and vortexed. Each patient sample utilized a single ABR microplate. Five microliters of diluted patient sample were added to each well of the room temperature microplate, the plate was sealed and incubated for 16-18 hr at 37° C.
After incubation, the plate was removed from the incubator and carefully uncovered. Two-hundred microliters of deionized water were added to each well to suspend cells present above the agar and the plates incubated at room temperature for 30 min. After 30 min, 100 μl from each well was removed to a new plate and the OD600 was determined in a spectrophotometer. Five separate reads were taken of each plate and a mean OD600 measurement calculated.
Controls include: No-antibiotic control, Negative control plate, and AB-Blend. No antibiotic control: Any well containing medium that is not infused with antibiotics to ensure viability of bacterial cells present in patient urine samples and included in each plate. […] Negative control plate: Microplate containing antibiotic-infused agar medium without addition of patient sample or cultured bacterial organisms to ensure non-contamination of reagents. AB-Blend: One or more wells containing a combination of antibiotics to ensure there is no bacterial growth.
The raw data was then “blanked” using the measurement obtained from the AB-Blend well, as depicted in Table 5.
(§1) To determine whether bacterial organisms present in the patient samples were resistant or sensitive to a particular antibiotic at a certain concentration, blanked OD readings were compared to a threshold OD600 of 0.025 (Table 6). Any OD measurement greater than or equal to this threshold was designated Resistant (R) meaning bacterial organisms present in patient sample were resistant to that particular antibiotic at that certain concentration. Any OD measurement less than this threshold was designated Sensitive (S) meaning bacterial organisms present in patient sample were sensitive to that particular antibiotic at that certain concentration.

[2] = test system: bacterial organisms present in patient urine sample; assay: Antibiotic Resistance (ABR) assay utilizing liquid growth medium; assay type: cell-based; details: liquid medium; for overall sensitivity of the bacteria in the sample to the antibiotic (in words): Example 4 sample
Experimental: Urine samples suitable for processing with this assay are collected, transported, and stored using BD Vacutainer tubes or other suitable leak-proof sterile containers. Urine samples may be held at room temperature for 48 hours before test results are compromised.
Antibiotic stocks are stored at 2-8° C. and protected from direct sunlight. Prepared antibiotic stock solutions were aliquoted into a 96-deep well plate (ThermoFisher Scientific) to form a 50× Antibiotic Source Plate and then diluted 1:5 to form a 10× Antibiotic Source Plate, as shown in FIG. 12 where each well is identified by antibiotic name and concentration (μg/mL; 10× final concentration). […] One well was assigned sodium azide to ensure no bacterial growth would be observed in that well.
Twenty microliters of each antibiotic solution were aliquoted into the pre-determined wells of a 96-well microplate (VIS 96/F-PS, Eppendorf) from the 10× Antibiotic Source Plate to create ABR testing plates for inoculation. These ABR testing plates were allowed to sit for up to 24 hours before use at 2-8° C. in the dark.
At the time of testing, urine samples were centrifuged to concentrate any bacterial cells and then mixed with liquid Mueller-Hinton medium and incubated for 6-16 hours at 37° C. After this initial incubation, the sample is diluted to 0.5-0.6 McF in saline and then 500 μl of that suspension was added to […] of Mueller-Hinton medium. One-hundred and eighty microliters of the diluted sample is then aliquoted to each well of the ABR microplate already containing 10× antibiotic solution, bringing all of the antibiotics to the desired final concentration. The plate is then sealed and incubated for 12-16 hours at 37° C.
After incubation, the plate was removed from the incubator and carefully uncovered and the OD600 was determined for each appropriate well by spectrophotometer. Five separate measurements were taken of each well on a plate and the mean OD600 measurement calculated for each well.
Controls are depicted in Table 10.
The raw data was then “blanked” using the measurement obtained from the Na-Azide well, as depicted in Table 14.
as §1, with “0.065” for “0.025”, “15). An” for “6). Any”

SMILES | Blanked (OD600 minus AB-Blend well) ([1]; antibiotic 8 μg/mL) | Mean (OD600) ([1]; antibiotic 8 μg/mL) | Blanked (OD600 minus AB-Blend well) ([1]; antibiotic 16 μg/mL) | Mean (OD600) ([1]; antibiotic 16 μg/mL) | Blanked (OD600 minus AB-Blend well) ([1]; antibiotic 32 μg/mL) | Mean (OD600) ([1]; antibiotic 32 μg/mL) | Blanked (OD600 minus Na-Azide well) ([2]; antibiotic 8 μg/mL) | Mean (OD600) ([2]; antibiotic 8 μg/mL) | Blanked (OD600 minus Na-Azide well) ([2]; antibiotic 32 μg/mL) | Mean (OD600) ([2]; antibiotic 32 μg/mL) | overall sensitivity of the bacteria in the sample to the antibiotic (in words) [2] | overall sensitivity of the bacteria in the sample to the antibiotic (in words) [1] | Blanked (OD600 minus AB-Blend well) ([1]; antibiotic 4 μg/mL) | Mean (OD600) ([1]; antibiotic 4 μg/mL) | Blanked (OD600 minus Na-Azide well) ([2]; antibiotic 4 μg/mL) | Mean (OD600) ([2]; antibiotic 4 μg/mL) | Blanked (OD600 minus AB-Blend well) ([1]; antibiotic 1 μg/mL) | Mean (OD600) ([1]; antibiotic 1 μg/mL) | Blanked (OD600 minus Na-Azide well) ([2]; antibiotic 1 μg/mL) | Mean (OD600) ([2]; antibiotic 1 μg/mL) | further results
CC1(C)S[C@@H]2[C@H](NC(=O)[C@H](N)c3ccccc3)C(=O)N2[C@H]1C(=O)O [Ampicillin, ampicillin] | 0.4496 | 0.4880 | 0.4838 | 0.5222 | 0.4440 | 0.4824 | −0.0040 | 0.0417 | −0.0039 | 0.0418 | sensitive | – | – | – | – | – | – | – | – | – | Blanked (OD600 minus Na-Azide well) ([2]; antibiotic 16 μg/mL): −0.0038; Mean (OD600) ([2]; antibiotic 16 μg/mL): 0.0419
CO[C@@]1(NC(=O)Cc2cccs2)C(=O)N2C(C(=O)O)=C(COC(N)=O)CS[C@@H]21 [Cefoxitin, cefoxitin] | 0.0008 | 0.0392 | 0.0005 | 0.0389 | 0.0005 | 0.0389 | 0.1831 | 0.2288 | 0.1891 | 0.2348 | – | sensitive | 0.0017 | 0.0401 | 0.1745 | 0.2202 | – | – | – | – | –
CO/N=C(\C(=O)N[C@@H]1C(=O)N2C(C(=O)O)=C(CSc3nc(=O)c(=O)[nH]n3C)CS[C@H]12)c1csc(N)n1 [Ceftriaxone, ceftriaxone] | 0.0008 | 0.0392 | 0.0007 | – | 0.0002 | 0.0386 | 0.1992 | 0.2449 | – | – | – | sensitive | 0.0021 | 0.0405 | 0.1900 | 0.2357 | 0.0061 | 0.0445 | 0.2028 | 0.2485 | Blanked (OD600 minus AB-Blend well) ([1]; antibiotic 2 μg/mL): 0.0048; Mean (OD600) ([1]; antibiotic 2 μg/mL): 0.0432; Blanked (OD600 minus AB-Blend well) ([1]; antibiotic 64 μg/mL): 0.0001; Mean (OD600) ([1]; antibiotic 64 μg/mL): 0.0385; Blanked (OD600 minus Na-Azide well) ([2]; antibiotic 64 μg/mL): 0.1899; Mean (OD600) ([2]; antibiotic 64 μg/mL): 0.2356
O=C(O)c1cn(C2CC2)c2cc(N3CCNCC3)c(F)cc2c1=O [Ciprofloxacin, ciprofloxacin] | – | – | – | – | – | – | – | – | – | – | sensitive | sensitive | 0.0003 | 0.0387 | −0.0034 | 0.0423 | 0.0024 | 0.0408 | −0.0016 | 0.0441 | Blanked (OD600 minus AB-Blend well) ([1]; antibiotic 2 μg/mL): 0.0030; Mean (OD600) ([1]; antibiotic 2 μg/mL): 0.0414
C[C@@H](O)[C@H]1C(=O)N2C(C(=O)O)=C(S[C@@H]3CN[C@H](C(=O)N(C)C)C3)[C@H](C)[C@H]12 [Meropenem, meropenem] | 0.0001 | 0.0385 | – | – | – | – | 0.0039 | 0.0496 | – | – | – | sensitive | 0.0006 | 0.0390 | 0.1099 | 0.1556 | 0.0008 | 0.0392 | 0.1741 | 0.2198 | Blanked (OD600 minus AB-Blend well) ([1]; antibiotic 2 μg/mL): 0.0004; Mean (OD600) ([1]; antibiotic 2 μg/mL): 0.0388; Blanked (OD600 minus Na-Azide well) ([2]; antibiotic 2 μg/mL): 0.1471; Mean (OD600) ([2]; antibiotic 2 μg/mL): 0.1928
CN[C@H](CC(C)C)C(=O)N[C@H]1C(=O)N[C@@H](CC(N)=O)C(=O)N[C@H]2C(=O)N[C@H]3C(=O)N[C@H](C(=O)N[C@H](C(=O)O)c4cc(O)cc(O)c4-c4cc3ccc4O)[C@H](O)c3ccc(c(Cl)c3)Oc3cc2cc(c3O[C@@H]2O[C@H](CO)[C@@H](O)[C@H](O)[C@H]2O[C@H]2C[C@](C)(N)[C@H](O)[C@H](C)O2)Oc2ccc(cc2Cl)[C@H]1O [Vancomycin, vancomycin] | – | – | – | 0.4918 | – | – | – | – | −0.0031 | 0.0426 | sensitive | – | – | – | −0.0032 | 0.0425 | – | – | 0.0047 | 0.0504 | Blanked (OD600 minus Na-Azide well) ([2]; antibiotic 2 μg/mL): −0.0022; Mean (OD600) ([2]; antibiotic 2 μg/mL): 0.0435; Blanked (OD600 minus Na-Azide well) ([2]; antibiotic 16 μg/mL): −0.0026; Mean (OD600) ([2]; antibiotic 16 μg/mL): 0.0431
